Experimental data published in paper PMC9681850, “Structural basis of synthetic agonist activation of the nuclear receptor REV-ERB” (Nature Communications, 2022).
Values joined by “and” are separate entries in the source; they are usually repeats but may differ in a detail not shown here. Identical values can stand only once. Each block holds one compound with its values, some of them ahead of it.

Columns and labels:
[1] = tested on: proliferating C2C12 mouse myoblast cells; assay: cell viability by crystal violet staining; format: cell-based; conditions: for cell viability (Fig. 2b source data): crystal violet, normalized to DMSO, single replicates; for reduction in cellular viability: proliferating C2C12 cells
Procedure: (§1) Cellular viability was tested in two cell types, human hepatocarcinoma HepG2 cells and proliferating C2C12 mouse myoblast cells.
(§2) Data are presented as mean ± SEM. Source data are available as a Source Data file.
(§3) The human hepatocellular carcinoma cell line, HepG2 cells (ATCC HB-8065), were cultured in 10% FBS 1% L-Glu MEM at 37 °C in a humidified atmosphere of 5% CO2. Prior to RNA extraction cells were treated with either DMSO or REV-ERB agonist for 24 h. The C2C12 proliferating mouse myoblast cells (ATCC, CRL-1772) were cultured in 10% FBS DMEM at 37 °C in a humidified atmosphere of 5% CO2. Prior to RNA extraction cells were treated with either DMSO or REV-ERB agonist for 24 h. […]
(§4) […] Media was removed, and cells were incubated with 0.5% crystal violet solution for 20 min at room temperature with mild agitation. Cells were washed four times with tap water before being air drying overnight. Cells were incubated in methanol for 20 min with mild agitation. Absorbance was read at 570 nm, and readings were normalized to vehicle (DMSO) treated cells.

REV-ERB regulated genes = tested on: REV-ERB regulated genes; set-up: method as in ref 17 re-assessed; ref 48; conditions: RNA-seq data of ref 17 re-assessed; cited from earlier work
BMAL1 in HepG2 cells = assay: expression of BMAL1 by qPCR; format: cell-based, human; set-up: key: Bmal1 expression normalized to Ppia; conditions: 5 μM, 24 h, single replicates (n = 4)
Text: We next determined whether STL1267 can regulate characterized REV-ERB modulated genes in cell lines expressing REV-ERB naturally. Five micromolar doses of both drugs were used in cell-based experiments from this point on. REV-ERB is an established component of the core molecular clock repressing the expression of core clock gene Bmal1[6],[27] as well as others[28],[29]. […] In skeletal muscle, REV-ERB agonism increases the expression of a wide variety of genes important in mitochondrial function.
The human hepatocellular carcinoma cell line, HepG2 cells (ATCC HB-8065), were cultured in 10% FBS 1% L-Glu MEM at 37 °C in a humidified atmosphere of 5% CO2. Prior to RNA extraction cells were treated with either DMSO or REV-ERB agonist for 24 h. The C2C12 proliferating mouse myoblast cells (ATCC, CRL-1772) were cultured in 10% FBS DMEM at 37 °C in a humidified atmosphere of 5% CO2. Prior to RNA extraction cells were treated with either DMSO or REV-ERB agonist for 24 h. Prior to crystal violet cytotoxicity assay, cells were treated with either DMSO or REV-ERB agonist for 48 h.
Mouse tissue was homogenized using a bullet blender. DNA/protein was removed by phase separation using BCP/chloroform. The supernatant (RNA containing fraction) was collected, and RNA was precipitated using isopropanol. The RNA pellets were washed with 75% ethanol and resolubilized in RNAse free water. […]

HepG2 cells = assay: cell viability by crystal violet staining; format: cell-based, human; conditions: for cell viability (Fig 2a source data): crystal violet, normalized to DMSO, single replicates
Procedure: as §1, §2, §3, §4

[2] = target: NCoR1-VP16 fusion protein (a fragment of the NCoR1 corepressor); assay: two-hybrid reporter assay (Gal4-FL REV-ERBα/NCoR1-VP16); conditions: HEK293 cells with Gal4UAS luciferase reporter; read at the highest dose shared with WT, log [STL1267] (µM) about 0.4; parent: est. 49; read off a plot

Compound: CCOC(=O)N1CCC(CN(Cc2ccc(Cl)cc2)Cc2ccc([N+](=O)[O-])s2)C1 (centres unmarked) [SR9009, reference compound]
- cell viability (Fig. 2b source data) ([1]; C2C12, 1 uM): 96.141 and 87.1558 and 95.0006 and 119.571 and 103.64
- cell viability (Fig. 2b source data) ([1]; C2C12, 2 uM): 73.3671 and 83.0434 and 96.4175 and 95.0006 and 98.2145 and 106.301 and 112.141 and 107.994
- cell viability (Fig. 2b source data) ([1]; C2C12, 5 uM): 97.5233 and 96.3829 and 104.02 and 104.331 and 114.111 and 109.239 and 109.791 and 104.884
- cell viability (Fig. 2b source data) ([1]; C2C12, 10 uM): 81.4883 and 68.2525 and 56.4681 and 49.4183 and 62.032 and 78.1707 and 78.3435 and 86.2228
- cell viability (Fig. 2b source data) ([1]; C2C12, 20 uM): 29.4436 and 32.6575 and 37.392 and 34.0399 and 33.6597 and 55.6387 and 64.9695 and 68.7363
- reduction in cellular viability ([1]; 10 μM): ~ 25%
- reduction in cellular viability ([1]; 20 μM): ~ 50%
- REV-ERB regulated genes still regulated in Rev-erbα/β DKO hepatocytes (REV-ERB regulated genes): 39%
- Bmal1 (Fig. 2c) expression (BMAL1 in HepG2 cells): 0.6576 and 0.6833 and 0.6229 and 0.6990
- cell viability (Fig 2a source data) (HepG2 cells; HepG2, 1uM, listed as SR009): 97.2789 and 85.5104 and 113.189 and 114.805 and 107.077 and 107.33 and 98.8951 and 92.8847
- cell viability (Fig 2a source data) (HepG2 cells; HepG2, 2uM, listed as SR909): 100.006 and 84.3488 and 101.774 and 112.583 and 88.7935 and 85.3589 and 86.1671 and 96.3697
- cell viability (Fig 2a source data) (HepG2 cells; HepG2, 5uM): 99.2992 and 90.5108 and 87.6823 and 102.582 and 76.621 and 82.8335 and 95.5616 and 87.3793
- cell viability (Fig 2a source data) (HepG2 cells; HepG2, 10uM): 106.875 and 80.1566 and 109.199 and 93.9453 and 73.8936 and 70.661 and 84.7528 and 82.682
- cell viability (Fig 2a source data) (HepG2 cells; HepG2, 20uM): 91.723 and 73.742 and 95.107 and 95.2585 and 84.7528 and 75.1058 and 92.3796 and 105.158
- reduction in cell viability (HepG2 cells; HepG2 cells, 10 and 20 μM): ~ 10%

- response (Normalized RLU) [2]: 73
Compound: full length human REV-ERBα fused to the GAL4 DNA-binding domain (wild type) (from UniProt P20393) F488A

- response (Normalized RLU) [2]: 7
Compound: full length human REV-ERBα fused to the GAL4 DNA-binding domain (wild type) (from UniProt P20393) F443A
